The source of these data is patent US20090209536A1, “AMINOQUINAZOLINE CANNABINOID RECEPTOR MODULATORS FOR TREATMENT OF DISEASE” (KALYPSYS, INC., priority 2007, published 2009).

Assay [1] has as its target T1, human cannabinoid receptor type 2 (Homo sapiens, UniProt P34972).
T1 construct: expressed in transfected cells; membrane preparation
In words: Human CB2 Radioligand Binding Assay. The conditions noted are these: membranes from stably transfected CHO CB2 cells. The gist of the method: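 Test compounds (10 uM final, or dose-response) competed with [3H]CP-55,940, used at the Kd determined per membrane lot, for binding to stable human CB2-CHO membranes over 90 min at 30° C in pH 7.4 Tris/EGTA/MgCl2/BSA buffer. GF/C filtration then scintillation counting; 100 nM CP-55,940 defined 100% efficacy.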

Assay [2] concerns the target T2, human cannabinoid receptor type 1 (Homo sapiens, UniProt P21554).
T2 construct: purchased Perkin Elmer RBHCB1M; host or cells: HEK 293 EBNA cells
In words: Human CB1 Radioligand Binding Assay (basis of selectivity, CB2 vs. CB1). The conditions noted are these: CB1: HEK 293 EBNA cells expressing human CB1; CB2: CHO CB2 membranes. As for the experimental part:
2. Human CB1 Radioligand Binding Assay
The incubation buffer was composed of 50 mM Tris-HCl pH 7.4, 2.5 mM EDTA, 5 mM MgCl2, 5.0 mg/ml fatty acid free BSA and the wash buffer was composed of 50 mM Tris-HCl pH 7.4, 2.5 mM EDTA, 5 mM MgCl2, 0.5 mg/ml fatty acid free BSA.

Setting [3] is: competition with [3H] CP-55,940, read-out: CB2 Ligand Binding Asssay EC50.

pEC50: −log10 of the molar value. Where two headings read alike, the source gives them in different places.

One may read the pEC50 as −log10 of the EC50, conventionally taken in molar units.

T1 sequence (P34972 whole entry): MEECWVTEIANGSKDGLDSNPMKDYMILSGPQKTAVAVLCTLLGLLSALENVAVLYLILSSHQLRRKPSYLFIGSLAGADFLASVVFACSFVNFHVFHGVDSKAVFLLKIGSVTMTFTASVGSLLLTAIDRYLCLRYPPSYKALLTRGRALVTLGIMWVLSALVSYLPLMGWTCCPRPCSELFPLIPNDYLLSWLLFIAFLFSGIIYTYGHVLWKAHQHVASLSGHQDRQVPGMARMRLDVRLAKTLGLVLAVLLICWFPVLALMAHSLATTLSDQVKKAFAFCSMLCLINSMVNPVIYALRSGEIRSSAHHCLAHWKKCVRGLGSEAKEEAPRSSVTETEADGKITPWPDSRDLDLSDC
T2 sequence (P21554 whole entry): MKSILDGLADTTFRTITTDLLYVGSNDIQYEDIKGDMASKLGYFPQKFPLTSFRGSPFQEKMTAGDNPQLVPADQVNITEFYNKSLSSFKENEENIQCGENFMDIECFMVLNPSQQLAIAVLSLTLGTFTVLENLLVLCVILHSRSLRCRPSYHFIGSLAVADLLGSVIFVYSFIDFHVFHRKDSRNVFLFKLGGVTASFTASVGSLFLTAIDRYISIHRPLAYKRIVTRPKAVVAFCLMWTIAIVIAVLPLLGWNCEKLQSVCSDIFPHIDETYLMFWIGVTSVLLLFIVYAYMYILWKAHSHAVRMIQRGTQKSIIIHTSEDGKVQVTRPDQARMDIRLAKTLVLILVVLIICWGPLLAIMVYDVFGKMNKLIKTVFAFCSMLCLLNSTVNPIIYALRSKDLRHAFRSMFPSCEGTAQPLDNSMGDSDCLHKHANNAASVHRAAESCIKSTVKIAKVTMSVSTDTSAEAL

As to `O=C(NCc1nc(N2CCCC2)c2ccccc2n1)Nc1ccc(Cl)c(C(F)(F)F)c1` [Example 11, 1-(4-Chloro-3-(trifluoromethyl)phenyl)-3-((4-(pyrrolidin-1-yl)quinazolin-2-yl)methyl)urea], the pEC50 in assay [1] (setting [3]) is less than 6.00. Moreover, the “Selectivity, CB2 vs. CB1” value in assay [2] is “− (− indicates ≦ 10−fold)”.

With `Cc1ccccc1-c1nc(N2CCN(C)CC2)c2ccccc2n1` [Example 157, 4-(4-Methylpiperazin-1-yl)-2-o-tolylquinazoline], the pEC50 in assay [1] (setting [3]) was more than 6.00. Further, the “Selectivity, CB2 vs. CB1” value in assay [2] is “+ (+ indicates > 10−fold)”.

As for `CC(=O)N1CCN(c2nc(-c3ccc(Cl)cc3Cl)nc3ccccc23)CC1` [Example 202, 1-(4-(2-(2,4-Dichlorophenyl)quinazolin-4-yl)piperazin-1-yl)ethanone], the negative logarithm of the EC50 (pEC50) in assay [1] (setting [3]) was more than 6.00. Besides, in assay [2], the “Selectivity, CB2 vs. CB1” value is recorded as “− (− indicates ≦ 10−fold)”.

Regarding `FC(F)(F)C1CCN(c2nc(-c3ccccc3Cl)nc3ccccc23)CC1` [Example 60, 2-(2-Chlorophenyl)-4-(4-(trifluoromethyl)piperidin-1-yl)quinazoline], the pEC50 in assay [1] (setting [3]) is more than 6.00. The “Selectivity, CB2 vs. CB1” value in assay [2] is given as “− (− indicates ≦ 10−fold)”.

`COc1cc2nc(Nc3ccc(C(C)(C)C)cc3)nc(N3CCCC3)c2cc1OC` [Example 298, N-(4-tert-butylphenyl)-6,7-dimethoxy-4-(pyrrolidin-1-yl)quinazolin-2-amine]: the pEC50 in assay [1] (setting [3]) is less than 6.00. Also, the “Selectivity, CB2 vs. CB1” value in assay [2] was “− (− indicates ≦ 10−fold)”.

In the case of `CC1CCN(c2nc(-c3ccc(Cl)cc3)nc3ccccc23)CC1` [Example 125, 2-(4-Chlorophenyl)-4-(4-methylpiperidin-1-yl)quinazoline], in assay [1] (setting [3]), the pEC50 was more than 6.00. For the same molecule, the “Selectivity, CB2 vs. CB1” value in assay [2] was “− (− indicates ≦ 10−fold)”.

For `CCc1ccc2nc(-c3ccccc3Cl)nc(N3CCSCC3)c2c1` [Example 174, 4-(2-(2-Chlorophenyl)-6-ethylquinazolin-4-yl)thiomorpholine], the pEC50 in assay [1] (setting [3]) is more than 6.00. Besides, the “Selectivity, CB2 vs. CB1” value in assay [2] is on record as “+ (+ indicates > 10−fold)”.

Regarding `COc1ccc2nc(C3CCCCC3)nc(N3CCN(C(C)=O)CC3)c2c1` [Example 186, 1-(4-(2-Cyclohexyl-6-methoxyquinazolin-4-yl)piperazin-1-yl)ethanone], the pEC50 in assay [1] (setting [3]) was more than 6.00. The “Selectivity, CB2 vs. CB1” value in assay [2] is “− (− indicates ≦ 10−fold)”.

For `Clc1ccccc1-c1nc(NCC23CC4CC(CC(C4)C2)C3)c2ccccc2n1` [Example 190, 2-(2-Chlorophenyl)-N-(1-adamanthylmethyl)quinazolin-4-amine], the pEC50 in assay [1] (setting [3]) is less than 6.00. Further, the “Selectivity, CB2 vs. CB1” value in assay [2] was “− (− indicates ≦ 10−fold)”.

As for `Cn1ccnc1N1CCN(c2nc(-c3ccccc3Cl)nc3ccccc23)CC1` [Example 257, 2-(2-Chlorophenyl)-4-(4-(1-methyl-1H-imidazol-2-yl)piperazin-1-yl)quinazoline], the pEC50 in assay [1] (setting [3]) is less than 6.00. Further, in assay [2], the “Selectivity, CB2 vs. CB1” value is “− (− indicates ≦ 10−fold)”.

As for `CC1CCN(c2nc(-c3ccccc3Cl)nc3ccccc23)CC1` [Example 58, 2-(2-Chlorophenyl)-4-(4-methylpiperidin-1-yl)quinazoline], the pEC50 in assay [1] (setting [3]) is more than 6.00. In addition, the “Selectivity, CB2 vs. CB1” value in assay [2] is “− (− indicates ≦ 10−fold)”.

`COC(=O)N1CCN(c2nc(-c3ccccc3Cl)nc3ccccc23)CC1` [Example 226, Methyl 4-(2-(2-chlorophenyl)quinazolin-4-yl)piperazine-1-carboxylate]: in assay [1] (setting [3]), the pEC50 was more than 6.00. The “Selectivity, CB2 vs. CB1” value in assay [2] is “+ (+ indicates > 10−fold)”.

In the case of `O=C(NCc1nc(N2CCCC2)c2ccccc2n1)c1ccc(Cl)cc1` [Example 12, 4-Chloro-N-((4-(pyrrolidin-1-yl)quinazolin-2-yl)methyl)benzamide], the pEC50 in assay [1] (setting [3]) was less than 6.00. Moreover, in assay [2], the “Selectivity, CB2 vs. CB1” value is recorded as “− (− indicates ≦ 10−fold)”.

With `COC(=O)c1ccc2nc(-c3ccccc3Cl)nc(Nc3cccc(OC(F)(F)F)c3)c2c1` [Example 326, Methyl 2-(2-chlorophenyl)-4-(3-(trifluoromethoxy)phenylamino)quinazoline-6-carboxylate], the pEC50 in assay [1] (setting [3]) is less than 6.00. In addition, in assay [2], the “Selectivity, CB2 vs. CB1” value was “− (− indicates ≦ 10−fold)”.

On to `CN1CCN(c2nc(-c3ccc(OC(F)(F)F)cc3)nc3ccccc23)CC1` [Example 142, 4-(4-Methylpiperazin-1-yl)-2-(4-trifluoromethoxyphenyl)quinazoline], for which, in assay [1] (setting [3]), the pEC50 is more than 6.00. Besides, the “Selectivity, CB2 vs. CB1” value in assay [2] is reported as “− (− indicates ≦ 10−fold)”.

With `CN1CCN(c2nc(C3CCCCC3)nc3cc(Cl)ccc23)CC1` [Example 166, 7-Chloro-2-cyclohexyl-4-(4-methylpiperazin-1-yl)quinazoline], in assay [1] (setting [3]), the pEC50 is more than 6.00. The “Selectivity, CB2 vs. CB1” value in assay [2] is “+ (+ indicates > 10−fold)”.

For the molecule `CN1CCN(c2nc(C3CCCCC3)nc3ccc(Cl)cc23)CC1` [Example 161, 6-Chloro-2-cyclohexyl-4-(4-methylpiperazin-1-yl)quinazoline], the pEC50 in assay [1] (setting [3]) is more than 6.00. The “Selectivity, CB2 vs. CB1” value in assay [2] is given as “− (− indicates ≦ 10−fold)”.

Turning to `CCCNC(=O)N1CCN(c2nc(-c3ccccc3Cl)nc3cccc(Cl)c23)CC1` [Example 284, 4-(5-Chloro-2-(2-chlorophenyl)quinazolin-4-yl)-N-propylpiperazine-1-carboxamide], the pEC50 in assay [1] (setting [3]) was less than 6.00. Also, the “Selectivity, CB2 vs. CB1” value in assay [2] is “− (− indicates ≦ 10−fold)”.

For the molecule `Clc1ccccc1-c1nc(NCCCN2CCOCC2)c2ccccc2n1` [Example 192, 2-(2-Chlorophenyl)-N-(3-morpholinopropyl)quinazolin-4-amine], the pEC50 in assay [1] (setting [3]) is less than 6.00. In addition, the “Selectivity, CB2 vs. CB1” value in assay [2] is on record as “− (− indicates ≦ 10−fold)”.

For `CN(C)C(=O)C1CCN(c2nc(-c3ccccc3Cl)nc3ccccc23)CC1` [Example 102, 1-(2-(2-Chlorophenyl)quinazolin-4-yl)-N,N-dimethylpiperidine-4-carboxamide], the pEC50 in assay [1] (setting [3]) is less than 6.00. Besides, the “Selectivity, CB2 vs. CB1” value in assay [2] is listed as “− (− indicates ≦ 10−fold)”.

As for `CCOC(=O)N1CCN(c2nc(-c3ccccc3Cl)nc3ccccc23)CC1` [Example 62, Ethyl 4-(2-(2-Chlorophenyl)quinazolin-4-yl)piperazine-1-carboxylate], in assay [1] (setting [3]), the negative-log EC50 (pEC50) is more than 6.00. For the same molecule, the “Selectivity, CB2 vs. CB1” value in assay [2] was “+ (+ indicates > 10−fold)”.

For `Fc1ccc(-c2nc(N3CCCC3)c3ccccc3n2)c(F)c1` [Example 22, 2-(2,4-Difluorophenyl)-4-(pyrrolidin-1-yl)quinazoline], the pEC50 in assay [1] (setting [3]) was more than 6.00. Further, the “Selectivity, CB2 vs. CB1” value in assay [2] is “− (− indicates ≦ 10−fold)”.

Consider `Clc1ccccc1-c1nc(NCC2CCCCC2)c2ccccc2n1` [Example 193, 2-(2-Chlorophenyl)-N-(cyclohexylmethyl)quinazolin-4-amine], for which the pEC50 in assay [1] (CB2 Ligand Binding Asssay EC50, competition with [3H] CP-55,940) is less than 6.00. In addition, the “Selectivity, CB2 vs. CB1” value in assay [2] is “− (− indicates ≦ 10−fold)”.

In the case of `CC(C)(C)c1ccc(-c2nc(NCC3CC3)c3ccccc3n2)cc1` [Example 130, 2-(4-tert-Butylphenyl)quinazolin-4-yl cyclopropylmethylamine], the pEC50 in assay [1] (setting [3]) is more than 6.00. For the same molecule, the “Selectivity, CB2 vs. CB1” value in assay [2] was “+ (+ indicates > 10−fold)”.

Regarding `O=C1CCN(c2nc(-c3ccccc3Cl)nc3ccccc23)CC1` [Example 65, 1-(2-(2-Chlorophenyl)quinazolin-4-yl)piperidin-4-one], the pEC50 in assay [1] (setting [3]) was more than 6.00. Besides, in assay [2], the “Selectivity, CB2 vs. CB1” value is listed as “− (− indicates ≦ 10−fold)”.

Consider `CN1CCN(c2nc(-c3ccccc3Cl)nc3ccccc23)CC1` [Example 57, 2-(2-Chlorophenyl)-4-(4-methylpiperazin-1-yl)quinazoline], for which the pEC50 in assay [1] (setting [3]) was more than 6.00. For the same molecule, the “Selectivity, CB2 vs. CB1” value in assay [2] is listed as “+ (+ indicates > 10−fold)”.

With `Clc1ccccc1-c1nc(N2CCCCC2)c2ccccc2n1` [Example 54, 2-(2-Chlorophenyl)-4-(piperidin-1-yl)quinazoline], in assay [1] (setting [3]), the pEC50 is more than 6.00. Besides, the “Selectivity, CB2 vs. CB1” value in assay [2] was “+ (+ indicates > 10−fold)”.

As to `CCOC(=O)N1CCN(c2nc(-c3ccc(F)c(F)c3)nc3ccccc23)CC1` [Example 220, Ethyl 4-(2-(3,4-difluorophenyl)quinazolin-4-yl)piperazine-1-carboxylate], in assay [1] (setting [3]), the pEC50 is less than 6.00. Further, the “Selectivity, CB2 vs. CB1” value in assay [2] was “− (− indicates ≦ 10−fold)”.

Consider `O=C1CCCN1c1nc(-c2ccccc2Cl)nc2ccccc12` [Example 70, 1-(2-(2-Chlorophenyl)quinazolin-4-yl)pyrrolidin-2-one], for which the pEC50 in assay [1] (setting [3]) is less than 6.00. Besides, the “Selectivity, CB2 vs. CB1” value in assay [2] is recorded as “− (− indicates ≦ 10−fold)”.

For the molecule `FC(F)(F)c1cccc2nc(-c3ccccc3Cl)nc(N3CCCC3)c12` [Example 242, 2-(2-Chlorophenyl)-4-(pyrrolidin-1-yl)-5-(trifluoromethyl)quinazoline], in assay [1] (setting [3]), the pEC50 is more than 6.00. Moreover, the “Selectivity, CB2 vs. CB1” value in assay [2] is on record as “+ (+ indicates > 10−fold)”.

Consider `CN(c1nc(-c2ccc(C(C)(C)C)cc2)nc2ccccc12)C1CCCCC1` [Example 131, 2-(4-tert-Butylphenyl)quinazolin-4-yl cyclohexylmethylamine], for which, in assay [1] (setting [3]), the pEC50 was more than 6.00. Further, the “Selectivity, CB2 vs. CB1” value in assay [2] was “− (− indicates ≦ 10−fold)”.

`CC(C)c1nc(N2CCN(C)CC2)c2ccccc2n1` [Example 148, 2-Isopropyl-4-(4-methylpiperazin-1-yl)quinazoline]: the pEC50 in assay [1] (setting [3]) is less than 6.00. Moreover, the “Selectivity, CB2 vs. CB1” value in assay [2] is on record as “− (− indicates ≦ 10−fold)”.
